Source: PubChem BioAssay (NCI)
Values joined by “and” are separate entries in the source; they are usually repeats but may differ in a detail not shown here. Equal values may be shown once.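 96-well plates; 48 h exposure; 5 concentrations. Endpoints by linear interpolation between flanking doses. Not reached: highest tested concentration assigned. GI50 = concentration required for 50% inhibition of growth. Definition used: TGI = concentration required for complete inhibition of growth.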

What was measured:
Assay in all cases: DTP human tumour cell line panel, 48 h
[1] = test system: RPMI-8226 leukemia
[2] = test system: LOX IMVI melanoma
[3] = test system: M14 melanoma
[4] = test system: PC-3 prostate
[5] = test system: MDA-MB-231 breast
[6] = test system: OVCAR-3 ovarian
[7] = test system: OVCAR-8 ovarian
[8] = test system: XF 498 CNS
[9] = test system: HS 578T breast
[10] = test system: RXF 393 renal
[11] = test system: SK-MEL-28 melanoma
[12] = test system: A498 renal
[13] = test system: MDA-N
[14] = test system: SNB-19 CNS
[15] = test system: HL-60(TB) leukemia
[16] = test system: ACHN renal
[17] = test system: MALME-3M melanoma

SMILES: O=CC(NC(=O)N(CCCl)N=O)C(O)C(O)C(O)CO (configuration not stated)
- GI50 [1]: 497 µM and > 1250 µM
- TGI [1]: 625 µM and > 1250 µM
- GI50 [2]: 50 µM and 303 µM and 78.7 µM
- TGI [2]: 384 µM and > 1250 µM and 661 µM
- TGI [3]: > 1250 µM
- TGI [4]: > 1250 µM
- TGI [5]: > 1250 µM
- GI50 [6]: > 625 µM
- TGI [6]: > 1250 µM
- GI50 [7]: > 625 µM and 587 µM
- TGI [7]: > 1250 µM
- TGI [8]: 415 µM and > 1250 µM
- TGI [9]: > 1250 µM
- GI50 [10]: 417 µM
- TGI [10]: 625 µM and > 1250 µM
- GI50 [11]: > 1250 µM
- TGI [11]: > 1250 µM
- GI50 [12]: > 1250 µM
- TGI [12]: > 1250 µM
- TGI [13]: > 1220 µM
- GI50 [14]: 62.6 µM and 384 µM
- TGI [14]: 625 µM and > 1250 µM
- GI50 [15]: 144 µM and 420 µM
- TGI [15]: 625 µM and > 1250 µM and 1070 µM
- TGI [16]: > 1250 µM
- GI50 [17]: 131 µM
- TGI [17]: 543 µM and 767 µM
